Patent US6649193B1, “Prophylactic therapeutic and industrial antioxidant compositions enhanced with stabilized atomic hydrogen/free electrons and methods to prepare and use such compositions” (Henceforth Hibernia Inc., priority 1999, dated 2003)

Assay: Standardized in-vitro tests of free radical / reactive species scavenging
Format: biochemical
Settings: cage-like agent added to the solution before electrolysis
Source text: Electrochemical Method to Produce and Encage Atomic Hydrogen: Electrolysis is a very efficient method of producing atomic hydrogen free electrons. In the past, though, it was not possible to separate oxidizing products produced at the anode and reducing products produced at the cathode. Recently, Japanese scientists used a semipermeable membrane to separate the cathode and anode areas, while not perturbing the flow of electrons delivered to the media. Such devices are, for instance, described in Y. Shiramizu et al., J. Electrochem. Soc., Vol. 143, 1632 (1996), the content of which is incorporated by reference in its entirety. In short, such devices consist of a chamber (usually made of noncorrosive material such as plastic) which is divided in two compartments with a water-tight semipermeable Nafion membrane (Dupont corporation). In each compartment, there is an electrode connected to a DC current source. […] Several parameters can be measured to ensure the efficiency of electrolysis. […] The efficiency of reduction of vitamin B12 can be tested by measuring UV/VISIBLE spectra and recording the absorbance at 387 nm, which is proportional to the amount of reduced vitamin B12, see G. Chithambarathanu Pillai and E. S. Gould, Inorganic Chemistry, Vol. 25, 3353 (1986), the content of which is incorporated by reference in its entirety. […]

For cyanocobalamin [vitamin B12], the “scavenging ability of the electrolyzed solution” value was “enhanced in a dose-dependent fashion”.
